The test concerns Endogenous Huntingtin Protein. The test is described as follows: Endogenous Huntingtin Protein Assay (ELISA-based MSD electrochemiluminescence). It is filed as cell-based. As to conditions: Table 1. The procedure:
Compounds of Formula (I) or Formula (II) were tested using the Meso Scale Discovery (MSD) Assay provided in International Application No. PCT/US2016/066042, filed on Dec. 11, 2016 and claiming priority to U.S. Provisional Application 62/265,652 filed on Dec. 10, 2015, the entire contents of which are incorporated herein by reference.
The Endogenous Huntingtin Protein assay used in Example 1 was developed using the ELISA-based MSD electrochemiluminescence assay platform.
Endogenous Huntingtin Protein Assay
Meso Scale Discovery (MSD) 96-well or 384-well plates were coated overnight at 4° C. with MW1 (expanded polyglutamine) or MAB2166 monoclonal antibody (for capture) at a concentration of 1 μg/mL in PBS (30 μL per well). Plates were then washed three times with 300 μL wash buffer (0.05% Tween-20 in PBS) and blocked (100 μL blocking buffer; 5% BSA in PBS) for 4-5 hours at room temperature with rotational shaking and then washed three times with wash buffer.
Samples (25 μL) were transferred to the antibody-coated MSD plate and incubated overnight at 4° C. After removal of the lysates, the plate was washed three times with wash buffer, and 25 μL of #5656S (Cell signaling; rabbit monoclonal) secondary antibody (diluted to 0.25 μg/mL in 0.05% Tween-20 in blocking buffer) was added to each well and incubated with shaking for 1 Hour at room temperature. Following incubation with the secondary antibody, the wells were rinsed with wash buffer after which 25 μL of goat anti-rabbit SULFO TAG secondary detection antibody (required aspect of the MSD system) (diluted to 0.25 μg/mL in 0.05% Tween-20 in blocking buffer) was added to each well and incubated with shaking for 1 hour at room temperature. After rinsing three times with wash buffer, 150 μL of read buffer T with surfactant (MSD) were added to each empty well, and the plate was imaged on a SI 6000 imager (MSD) according to manufacturers' instructions provided for 96- or 384-well plates.
Background: An ELISA detects its analyte on a solid surface through an enzyme-linked reagent.

The term IC50 denotes the concentration needed to halve the response being measured. A lower IC50 goes with greater potency. As for “5-{2-[(1,5-dimethyl-8-azabicyclo[3.2.1]oct-3-yl)(methyl)amino][1,3]thiazolo[5,4-d]pyrimidin-5-yl)-2-methyl-2H-indazole-7-carbonitrile [Compound 254]”, the IC50 was at most 0.1 µM.

As for `Cn1cc2cc(-c3ccc4nc(C5=CCNCC5)sc4c3)ccc2n1` [Compound 1, 6-(2-methyl-2H-indazol-5-yl)-2-(1,2,3,6-tetrahydropyridin-4-yl)-1,3-benzothiazole], the IC50 is 0.1 to 0.5 µM.

Molecule `Cn1cc2cc(-c3ccc4nc(C5CCNCC5)sc4c3)ccc2n1` [Compound 2, 6-(2-methyl-2H-indazol-5-yl)-2-(piperidin-4-yl)-1,3-benzothiazole] had an IC50 of 0.1 to 0.5 µM. Then `CN1CC=C(c2nc3ccc(-c4ccc5nn(C)cc5c4)cc3s2)CC1` [Compound 3, 6-(2-methyl-2H-indazol-5-yl)-2-(1-methyl-1,2,3,6-tetrahydropyridin-4-yl)-1,3-benzothiazole], with 0.5 to 1 µM; and `Cn1cc2cc(-c3nc4ccc(C5=CCNCC5)cc4s3)ccc2n1` [Compound 4, 2-(2-methyl-2H-indazol-5-yl)-6-(1,2,3,6-tetrahydropyridin-4-yl)-1,3-benzothiazole], with 0.1 to 0.5 µM. Turning to `Cn1cc2cc(-c3nc4ccc(C5CCNCC5)cc4s3)ccc2n1` [Compound 5, 2-(2-methyl-2H-indazol-5-yl)-6-(piperidin-4-yl)-1,3-benzothiazole], the half-inhibitory concentration (IC50) lay in the range of 0.5 to 1 µM. As to `CN1CC=C(c2ccc3nc(-c4ccc5nn(C)cc5c4)sc3c2)CC1` [Compound 6, 2-(2-methyl-2H-indazol-5-yl)-6-(1-methyl-1,2,3,6-tetrahydropyridin-4-yl)-1,3-benzothiazole], the IC50 was in the range of 1 to 3 µM. Molecule `Cn1cc2cc(-c3ccc4nc(N5CCNCC5)sc4c3)ccc2n1` [Compound 7, 6-(2-methyl-2H-indazol-5-yl)-2-(piperazin-1-yl)-1,3-benzothiazole] registered an IC50 of 1 to 3 µM. Then `CN(c1nc2ccc(-c3ccc4nn(C)cc4c3)cc2s1)C1CCNCC1` [Compound 8, N-methyl-6-(2-methyl-2H-indazol-5-yl)-N-(piperidin-4-yl)-1,3-benzothiazol-2-amine], with 0.1 to 0.5 µM. Then `CN1CCC(c2nc3ccc(-c4ccc5nn(C)cc5c4)cc3s2)CC1` [Compound 9, 6-(2-methyl-2H-indazol-5-yl)-2-(1-methylpiperidin-4-yl)-1,3-benzothiazole], with 1 to 3 µM; and `CN1CCC(c2ccc3nc(-c4ccc5nn(C)cc5c4)sc3c2)CC1` [Compound 10, 2-(2-methyl-2H-indazol-5-yl)-6-(1-methylpiperidin-4-yl)-1,3-benzothiazole], with 1 to 3 µM. In the case of `CN(c1ccc2nc(-c3ccc4nn(C)cc4c3)sc2c1)C1CCNCC1` [Compound 11, N-methyl-2-(2-methyl-2H-indazol-5-yl)-N-(piperidin-4-yl)-1,3-benzothiazol-6-amine], the IC50 was in the range of 1 to 3 µM. Then `CN(c1nc2ncc(-c3ccc4nn(C)cc4c3)cc2s1)C1CCNCC1` [Compound 12, N-methyl-6-(2-methyl-2H-indazol-5-yl)-N-(piperidin-4-yl)[1,3]thiazolo[4,5-b]pyridine-2-amine], with 1 to 3 µM; and `Cc1cc(-c2cnc3nc(N(C)C4CCNCC4)sc3c2)cc2cn(C)nc12` [Compound 13, 6-(2,7-dimethyl-2H-indazol-5-yl)-N-methyl-N-(piperidin-4-yl)[1,3]thiazolo[4,5-b]pyridin-2-amine], with 0.5 to 1 µM; and `Cc1cc(-c2cnc3nc(NC4CCNCC4)sc3c2)cc2cn(C)nc12` [Compound 14, 6-(2,7-dimethyl-2H-indazol-5-yl)-N-(piperidin-4-yl)[1,3]thiazolo[4,5-b]pyridin-2-amine], with 1 to 3 µM. Then `Cn1cc2cc(-c3cnc4nc(NC5CCNCC5)sc4c3)ccc2n1` [Compound 15, 6-(2-methyl-2H-indazol-5-yl)-N-(piperidin-4-yl)[1,3]thiazolo[4,5-b]pyridin-2-amine], with 1 to 3 µM. Then `CN(c1nc2ncc(-c3ccc4nn(C)cc4c3)cc2s1)C1CC(C)(C)NC(C)(C)C1` [Compound 16, N-methyl-6-(2-methyl-2H-indazol-5-yl)-N-(2,2,6,6-tetramethylpiperidin-4-yl)[1,3]thiazolo[4,5-b]pyridin-2-amine], with 0.5 to 1 µM; and `Cc1cc(-c2cnc3nc(N(C)C4CC(C)(C)NC(C)(C)C4)sc3c2)cc2cn(C)nc12` [Compound 17, 6-(2,7-dimethyl-2H-indazol-5-yl)-N-methyl-N-(2,2,6,6-tetramethylpiperidin-4-yl)[1,3]thiazolo[4,5-b]pyridin-2-amine], with 0.1 to 0.5 µM; and `Cc1cc(-c2ccc3nc(C4=CCNCC4)sc3c2)cc2cn(C)nc12` [Compound 18, 6-(2,7-dimethyl-2H-indazol-5-yl)-2-(1,2,3,6-tetrahydropyridin-4-yl)-1,3-benzothiazole], with 0.1 to 0.5 µM. `Cn1cc2cc(-c3nc4ncc(C5=CCNCC5)cc4s3)ccc2n1` [Compound 19, 2-(2-methyl-2H-indazol-5-yl)-6-(1,2,3,6-tetrahydropyridin-4-yl)[1,3]thiazolo[4,5-b]pyridine] had an IC50 of 0.1 to 0.5 µM. In the case of `CN(c1nc2ccc(-c3ccc4nn(C)cc4c3)cc2s1)C1CC(C)(C)NC(C)(C)C1` [Compound 20, N-methyl-6-(2-methyl-2H-indazol-5-yl)-N-(2,2,6,6-tetramethylpiperidin-4-yl)-1,3-benzothiazol-2-amine], the IC50 is at most 0.1 µM. In the case of `Cc1cc(-c2ccc3nc(N(C)C4CC(C)(C)NC(C)(C)C4)sc3c2)cc2cn(C)nc12` [Compound 21, 6-(2,7-dimethyl-2H-indazol-5-yl)-N-methyl-N-(2,2,6,6-tetramethylpiperidin-4-yl)-1,3-benzothiazol-2-amine], the IC50 was in the range of 0.1 to 0.5 µM.

For `Cc1cc(-c2ccc3nc(C4CCNCC4)sc3c2)cc2cn(C)nc12` [Compound 22, 6-(2,7-dimethyl-2H-indazol-5-yl)-2-(piperidin-4-yl)-1,3-benzothiazole], the IC50 is at most 0.1 µM. Then `CN(c1nc2c(F)cc(-c3ccc4nn(C)cc4c3)cc2s1)C1CC(C)(C)NC(C)(C)C1` [Compound 23, 4-fluoro-N-methyl-6-(2-methyl-2H-indazol-5-yl)-N-(2,2,6,6-tetramethylpiperidin-4-yl)-1,3-benzothiazol-2-amine], with at most 0.1 µM. Then `Cc1cc(-c2cc(F)c3nc(N(C)C4CC(C)(C)NC(C)(C)C4)sc3c2)cc2cn(C)nc12` [Compound 24, 6-(2,7-dimethyl-2H-indazol-5-yl)-4-fluoro-N-methyl-N-(2,2,6,6-tetramethylpiperidin-4-yl)-1,3-benzothiazol-2-amine], with at most 0.1 µM; and `CN(c1nc2ccc(-c3ccc4nn(C)cc4c3)nc2s1)C1CC(C)(C)NC(C)(C)C1` [Compound 25, N-methyl-5-(2-methyl-2H-indazol-5-yl)-N-(2,2,6,6-tetramethylpiperidin-4-yl)[1,3]thiazolo[5,4-b]pyridin-2-amine], with 0.1 to 0.5 µM; and `CN(c1nc2ccc(-c3ccc4nn(C)cc4c3)nc2s1)C1CCNCC1` [Compound 26, N-methyl-5-(2-methyl-2H-indazol-5-yl)-N-(piperidin-4-yl)[1,3]thiazolo[5,4-b]pyridin-2-amine], with 0.5 to 1 µM.

On to `CN(c1nc2cnc(-c3ccc4nn(C)cc4c3)cc2s1)C1CCNCC1` [Compound 27, N-methyl-6-(2-methyl-2H-indazol-5-yl)-N-(piperidin-4-yl)[1,3]thiazolo[4,5-c]pyridin-2-amine], for which the IC50 fell in the range of 0.5 to 1 µM.
